Experimental data from patent US8158621B2, “Methods of treating or preventing autoimmune diseases with 2,4-pyrimidinediamine compounds” (Rigel Pharmaceuticals, Inc., priority 2002, dated 2012).

Experiments:
Primary T-cells [1] = test: Primary T-cell cytokine production (αCD3/αCD28): IFNg; assay type: cell-based, human; conditions: read-out: 1° T-Cell IFNg IC50
Experimental: (§1) 2E8-4E8 PBMC or proliferating T cells grown in rIL-2 from healthy human donors were suspended in PBS were spun down (1500 rpm, 8-10 minutes) and resuspended in 100 ml RPMI Complete media (1% Pen-Strep, 1% L-Glutamine, 10 mM HEPES). The cells were plated in T175 flasks (37° C., 5% CO2) and monocytes were allowed to adhere for 2-3 hours. After monocyte attachment, non-adherent cells were harvested, counted by hemocytometer, washed several times with PBS then resuspended in Yssels Complete Media (Modified IMDM Media with 1% Human AB Serum, 1% Pen-Strep, 1% L-Glutamine, 10 mM HEPES) at […]. 90 uL of the cell dilution were then added to compounds diluted to 2× in Yssel's media and incubated for 30 minutes at 37° C. (5% CO2). After this preincubation step the compound/cell mixture was transferred to stimulation plates, as described below.
(§2) Stimulation plates were prepared by coating 96 well plates with 5 μg/ml αCD3 (BD PharMingen, Catalog #555336)+10 μg/ml αCD28 (Beckman Coulter, Catalog #IM1376) in PBS (no Ca^2+/Mg^2+) at 37° C. (5% CO2) for at 3-5 hours. After incubation with the stimulation antibodies, the cocktail was removed and the plates washed 3 times with PBS prior to addition of the primary T cell/compound mixture.
(§3) The compound/cell mixture was transferred to the stimulation plates and incubated for 18 hr at 37° C. (5% CO2). After the cell stimulation, ˜150 μl supernatant were transferred from each well into 96-well filter plates (Coming PVDF Filter Plates) spun down (2000 rpm, 2-3 minutes) and either used immediately for ELISA or LUMINEX measurements or frozen down at −80° C. for future use.
(§4) Luminex immunoassay multiplexing for TNF, IL-2, GMSCF, IL-4 and IFNg was performed essentially as described by the manufacturer (Upstate Biotechnology). Essentially 50 uL of sample was diluted into 50 uL assay diluent and 50 uL incubation buffer, then incubated with 100 uL of the diluted detection antibody for 1 hr at RT in the dark. The filter plate was washed 2× in Wash Buffer, then incubated with 100 uL of the diluted secondary reagent (SAV-RPE) for 30 min at RT in the dark. Finally the plates were washed 3 times and bead identification and RPE fluorescent measured by the Luminex instrument.
(§5) Varied concentrations of compound were compared to solvent only to determine the inhibition of T-cell activation IC50 of each compound.

[2] = system: cultured human mast cells (CHMC); test: CHMC low cell density ionomycin activation: tryptase assay; assay type: cell-based; conditions: low cell density; read-out: CHMC Ionomycin Tryptase
[3] = system: bone marrow derived mast cells (BMMC); test: BMMC high cell density IgE activation: TNFalpha; assay type: cell-based, mouse; conditions: high cell density; read-out: BMMC anti-IgE TNF-alpha
Experimental: (§6) After sensitizing, cells are counted, pelleted (1000 rpm, 5-10 minutes), and resuspended at 1-3×10^6 cells/ml in MT buffer. Add 100 ul of cell suspension to each well and 100 ul of compound dilutions. The final vehicle concentration is 0.5% DMSO. Incubate at 37° C. (5% CO2) for 1 hour. After 1 hour of compound treatment, stimulate cells with 6× stimulus (60 ng/ml DNP-BSA). Mix wells with the cells and allow plates to incubate at 37° C. (5% CO2) for one hour. After 1 hour incubation, pellet cells (10 minutes, 1000 RPM) and collect 200 ul per well of the supernatant, being careful not to disturb pellet, and transfer to a clean tube or 96-well plate. Place the supernatant plate on ice. During the 4-5 hour step (see next) perform the hexosiminidase assay. Resuspend cell pellet in 240 ul WEI-conditioned media containing 0.5% DMSO and corresponding concentration of compound. Incubate BMMC cells for 4-5 hours at 37° C. (5% CO2). After incubation, pellet cells (1000 RPM, 10 minutes) and collect 225 ul per well and place in −80° C. until ready to perform ELISAS. ELISAS are performed on appropriately diluted samples (determined empirically for each donor cell population so that the sample measurement falls within the standard curve) following the supplier's instructions.

[4] = system: Human Jurkat T-cells (clone N); test: Jurkat T-cell activation (anti-TCR, CD69 upregulation); assay type: cell-based
Procedure, shortened: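 Jurkat cells in RPMI + 5% FBS preincubated with compound 1 h at 37 °C, then stimulated with anti-TCR C305 at 500 ng/ml for 20 h. CD69 surface expression stained with anti-CD69-APC and read by flow cytometry; IC50 versus solvent-only control.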

[5] = system: bone marrow derived mast cells (BMMC); test: BMMC high cell density IgE activation: hexosaminidase; assay type: cell-based, mouse; conditions: high cell density; read-out: BMMC anti-IgE Hexos.
Primary T-cells [6] = test: Primary T-cell cytokine production (αCD3/αCD28): GMSCF; assay type: cell-based, human; conditions: read-out: 1° T-Cell GMSCF IC50
Experimental: as §1, §2, §3, §4, §5

Primary T-cells [7] = test: Primary T-cell cytokine production (αCD3/αCD28): IL-2; assay type: cell-based, human; conditions: read-out: 1° T-Cell IL2 IC50
Experimental: as §1, §2, §3
IL-2 ELISAs were performed using the Quantikine Human IL-2 ELISA kit (R&D Systems, Catalog # D2050) as described by the manufacturer and absorption was measured on a spectrophotometer at 450 nm wavelength. Blank values were substracted and absorbances were converted to pg/mL based on the standard curve.
as §4, §5

Syk kinase = molecular target: T1, Syk kinase (Homo sapiens, UniProt P43405); test: Syk kinase biochemical fluorescence polarization assay; conditions: isolated Syk kinase, fluorescence polarization, 4 uM ATP
T1 construct: purchased Upstate, Lake Placid NY

Primary T-cells [8] = test: Primary T-cell cytokine production (αCD3/αCD28): TNF; assay type: cell-based, human; conditions: read-out: 1° T-Cell TNF IC50
Experimental: as §1
(5% CO2) for at 3-5 hours. After incubation with the stimulation antibodies, the cocktail was removed and the plates washed 3 times with PBS prior to addition of the primary T cell/compound mixture.
as §3, §4, §5

[9] = system: bone marrow derived mast cells (BMMC); test: BMMC high cell density IgE activation: IL-6; assay type: cell-based, mouse; conditions: high cell density; read-out: BMMC anti-IgE IL-6
Experimental: as §6

[10] = system: cultured human mast cells (CHMC); test: CHMC low cell density IgE activation: tryptase assay; assay type: cell-based; conditions: low cell density; read-out: CHMC anti-IgE Tryptase
Procedure, shortened: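 Cells pelleted, taken up in warm MT, plated at 1000-1500/well, held 1 hr 37° C. Anti-IgE added, 30 min 37° C. Plates spun; supernatant mixed with tryptase substrate, 30 min RT.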

Primary T-cells [11] = test: Primary T-cell cytokine production (αCD3/αCD28): IL-4; assay type: cell-based, human; conditions: read-out: 1° T-Cell IL4 IC50
Experimental: as §1, §2, §3, §4, §5

[12] = system: differentiated human macrophages; test: Macrophage activation, IgG stimulation: TNF; assay type: cell-based; conditions: stimulus (IgG or LPS) not given; read-out: Monocytes/Macrophage TNF IC50
Experimental: Purity was assessed by measuring the percentage of CD14+ cells by flow cytometry.
A negative control consisting of the F(ab′)2 fragment was also coated to assess background stimulation. Unbound antibody was washed away 2× with 200 ul PBS. […] The cells were incubated for 16 hr in a 37° C. incubator, and supernatants were collected for Luminex analysis for IL-6 and TNFα, essentially as described for the primary T-cells, above.

[13] = system: differentiated human macrophages; test: Macrophage activation, IgG stimulation: IL-6; assay type: cell-based; conditions: stimulus (IgG or LPS) not given; read-out: Monocytes/Macrophage IL-6 IC50
Experimental: CD 14+ monocytes were purified from PBMC (Allcells # PB002) using the Monocyte Isolation kit (Miltenyi biotec #130-045-501) as per the manufacturer's instructions. Purity was assessed by measuring the percentage of CD14+ cells by flow cytometry. Typically >90% purity is achieved. The purified CD14+ cells are then plated out (6×10^6 cells/150 cm TC dish in 15 mls media) in Macrophage-SFM (Gibco #12065-074) with 100 ng/ml of M-CSF (Pepro Tech #300-25) and allowed to differentiate for five days. At the end of that period, cell morphology and cell surface markers (CD14, HLA-DR, B7.1, B7.2, CD64, CD32, and CD16) reflected the presence of mature differentiated macrophage.
A negative control consisting of the F(ab′)2 fragment was also coated to assess background stimulation. Unbound antibody was washed away 2× with 200 ul PBS. 20 ul of 5× compound was added to each well, followed by the addition 15 k cells of differentiated macrophage in 80 uL that had been scraped off of the plates. The cells were incubated for 16 hr in a 37° C. incubator, and supernatants were collected for Luminex analysis for IL-6 and TNFα, essentially as described for the primary T-cells, above.
Varied concentrations of compound were compared to solvent only to determine the IC50 of each compound for each cytokine Representative IC50 s for 2,4-pyrimidinediamine compounds of the invention are shown in Table 11.

IC50 (Primary T-cells [1]) [nM] | IC50 [2] [nM] | IC50 [3] [nM] | IC50 [4] [nM] | IC50 [5] [nM] | IC50 (Primary T-cells [6]) [nM] | IC50 (Primary T-cells [7]) [nM] | IC50 (Syk kinase) [nM] | IC50 (Primary T-cells [8]) [nM] | IC50 [9] [nM] | IC50 [10] [nM] | IC50 (Primary T-cells [11]) [nM] | IC50 [12] [nM] | IC50 [13] [nM] | Structure (SMILES)
1570 | > 10000 | 7 | 224 | 2 | 1740 | 1320 | 8 | 595 | 6 | 28.7 | 876 |  |  | CNC(=O)COc1cccc(Nc2ncc(F)c(Nc3ccc4c(c3)NC(=O)[C@H](C)O4)n2)c1 [Compound R909317]
 | > 10000 | 140 | 3030 | 240 |  |  | 141 |  | 100 | 225 |  | 1260 | 839 | COc1ccc(Nc2ncc(F)c(Nc3ccc4c(c3)NC(=O)[C@@H](C)O4)n2)cc1Cl [Compound R909322]
 | 13000 | 930 | 930 | 1350 |  |  | 111 |  | 1090 | 76 |  | 8500 | 5650 | Cc1cccc(C)c1Nc1ncc(F)c(Nc2ccc3c(c2)NC(=O)C(C)(C)O3)n1 [Compound R927069]
